According to patent publication US7445921B2, “Transglycosylation method and protein having transglycosylation activity” (priority 2004, dated 2008):
No end group written: not given here.

Experiments:
[1] = test system: recombinant endo-α-GalNAc-ase; conditions: substance as sugar source 1.2 mM, TLC
Description: The reaction system for measurement of transglycosylation activity was carried out by using the sugar chain donor Galβ1-3GalNAcα1-pNP at a final concentration of 2 mM, the acceptor 1-alkanol at a final concentration of 15% (v/v) and the purified enzyme (recombinant endo-α-GalNAc-ase) at a final concentration of 6.8 units/L in a 50 mM potassium phosphate buffer, pH 7.0.

[2] = test system: recombinant endo-α-GalNAc-ase; experiment: Transglycosylation into polypeptide (HPLC, MALDI-TOF-MS); type: biochemical, Bifidobacterium longum JCM1217; conditions: donor Galβ1-3GalNAcα1-pNP, sodium phosphate buffer pH 6, 37° C., one hour, HPLC product peak
Description: First, an enzymatic reaction of recombinant endo-α-GalNAc-ase purified in (7) was performed with Galβ1-3GalNAcα1-pNP as the sugar chain donor and peptide-T (see SEQ ID: 16), PAMP-12 (an amino acid sequence shown in SEQ ID: 17 with an amino group attached at C-end of the sequence) and bradykinin (see SEQ ID: 18) as the sugar chain acceptor.
That is, 10 μl of Galβ1-3GalNAcα1-pNP, 6 μl solution of each polypeptide as the acceptor and 1.5 μl of NaP (sodium phosphate) buffer (500 mM, pH 6) were mixed. The sugar chain donor, Galβ1-3GalNAcα1-pNP was used at a concentration of 10 mM, and for the peptide solution, each of 50 mM peptide-T, 50 mM bradykinin, and 10 mM PAMP-12 was used. A solution obtained by mixing was warmed up to 37° C., subsequently 2.5 μl of endo-α-GalNAc-ase (1.55 unit/ml) was added thereto, which was then incubated in a water bath at 37° C. for one hour. Subsequently, the enzyme was inactivated by boiling for 3 to 5 minutes.
Each reaction solution obtained in the aforementioned enzymatic reaction was applied to an HPLC analysis, and reaction products were analyzed and fractionated. […] UV (wavelength 214 nm) spectra were detected.
Detected results of each reaction solution for peptide-T, PAMP-12 and bradykinin are shown in FIGS. 5A, 5B and 5C, respectively.
The fractions fractionated by the aforementioned HPLC were analyzed by MALDI-TOF-MS. […]
Target sequence in this assay (as listed by the source): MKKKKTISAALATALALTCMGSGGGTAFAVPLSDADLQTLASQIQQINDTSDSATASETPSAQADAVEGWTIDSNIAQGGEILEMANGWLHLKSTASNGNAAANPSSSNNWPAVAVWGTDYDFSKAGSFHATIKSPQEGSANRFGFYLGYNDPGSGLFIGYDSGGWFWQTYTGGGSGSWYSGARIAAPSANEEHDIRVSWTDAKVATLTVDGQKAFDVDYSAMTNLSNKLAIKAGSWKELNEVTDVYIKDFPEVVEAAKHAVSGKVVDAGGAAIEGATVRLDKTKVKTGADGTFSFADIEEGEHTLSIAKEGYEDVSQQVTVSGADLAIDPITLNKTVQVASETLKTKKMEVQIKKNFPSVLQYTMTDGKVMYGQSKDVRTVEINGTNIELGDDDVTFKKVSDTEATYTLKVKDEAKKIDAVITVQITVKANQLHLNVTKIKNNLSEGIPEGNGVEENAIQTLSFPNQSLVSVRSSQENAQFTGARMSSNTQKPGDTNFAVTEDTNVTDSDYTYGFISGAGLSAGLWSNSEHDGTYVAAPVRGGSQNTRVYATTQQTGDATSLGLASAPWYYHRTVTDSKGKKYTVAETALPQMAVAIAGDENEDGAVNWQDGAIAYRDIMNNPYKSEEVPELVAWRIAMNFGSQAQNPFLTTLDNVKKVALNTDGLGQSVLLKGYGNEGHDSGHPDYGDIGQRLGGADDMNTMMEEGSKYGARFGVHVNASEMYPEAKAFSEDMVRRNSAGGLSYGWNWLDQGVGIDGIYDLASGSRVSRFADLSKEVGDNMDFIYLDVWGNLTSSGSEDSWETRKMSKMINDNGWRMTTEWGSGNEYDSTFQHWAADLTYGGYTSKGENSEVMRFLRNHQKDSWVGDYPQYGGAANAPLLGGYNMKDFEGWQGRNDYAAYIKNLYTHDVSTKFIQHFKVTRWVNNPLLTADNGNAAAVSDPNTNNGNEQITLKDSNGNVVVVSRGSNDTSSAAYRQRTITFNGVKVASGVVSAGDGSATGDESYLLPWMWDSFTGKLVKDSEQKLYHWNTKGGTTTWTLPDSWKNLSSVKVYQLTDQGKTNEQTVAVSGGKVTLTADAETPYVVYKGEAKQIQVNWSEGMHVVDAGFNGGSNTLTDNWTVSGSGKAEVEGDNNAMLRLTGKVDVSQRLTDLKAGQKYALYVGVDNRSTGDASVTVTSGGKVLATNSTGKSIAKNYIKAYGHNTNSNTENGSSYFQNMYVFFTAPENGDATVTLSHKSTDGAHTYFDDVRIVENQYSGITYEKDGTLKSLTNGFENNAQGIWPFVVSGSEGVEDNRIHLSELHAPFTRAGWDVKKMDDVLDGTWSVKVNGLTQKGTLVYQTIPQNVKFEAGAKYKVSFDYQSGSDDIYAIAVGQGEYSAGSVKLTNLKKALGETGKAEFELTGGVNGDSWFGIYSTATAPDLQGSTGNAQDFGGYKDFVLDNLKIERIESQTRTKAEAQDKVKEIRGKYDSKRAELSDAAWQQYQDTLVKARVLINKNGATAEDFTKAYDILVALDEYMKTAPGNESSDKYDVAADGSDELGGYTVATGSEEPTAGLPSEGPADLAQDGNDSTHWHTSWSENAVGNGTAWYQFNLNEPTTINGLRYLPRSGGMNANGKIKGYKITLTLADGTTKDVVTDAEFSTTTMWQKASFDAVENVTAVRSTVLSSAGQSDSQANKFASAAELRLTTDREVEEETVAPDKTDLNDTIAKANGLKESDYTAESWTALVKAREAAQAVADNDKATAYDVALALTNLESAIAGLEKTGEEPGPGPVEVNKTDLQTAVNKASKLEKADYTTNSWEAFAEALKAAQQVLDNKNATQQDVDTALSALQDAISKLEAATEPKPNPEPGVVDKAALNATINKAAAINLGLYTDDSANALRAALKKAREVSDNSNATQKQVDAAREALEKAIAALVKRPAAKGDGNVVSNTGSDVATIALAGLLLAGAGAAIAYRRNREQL

Row | Compound | Formation of product spot in reaction with methanol as acceptor (transglycosylation vs reverse hydrolysis) [1] | Transfer of disaccharide (Gal-GalNAc) to the peptide acceptor [2]
1 | CC(=O)N[C@H]1C(O)O[C@H](CO)[C@H](O)[C@@H]1O[C@@H]1O[C@H](CO)[C@H](O)[C@H](O)[C@H]1O (stereo partly drawn) [Galβ1-3GalNAc, galactosyl β1→3N-acetylgalactosamine] | not formed | 
2 | CC(=O)N[C@H]1[C@@H](Oc2ccc([N+](=O)[O-])cc2)O[C@H](CO)[C@H](O)[C@@H]1O[C@@H]1O[C@H](CO)[C@H](O)[C@H](O)[C@H]1O [Galβ1-3GalNAcα1-pNP, galactosyl β1→3N-acetylgalactosaminyl α1-p-nitrophenol, reference compound] | formed | 
3 | PAMP-12: amino acid sequence shown in SEQ ID: 17 with an amino group attached at C-end; sugar chain acceptor (FRKKWNKWALSR-NH2; listed as Homo sapiens) |  | disaccharide (Gal-GalNAc) had been transferred
